Source: patent publication US20200206350A1, “COMPOUNDS FOR REDUCING THE VISCOSITY OF BIOLOGICAL FORMULATIONS” (Merck Sharp & Dohme Corp., priority 2017, published 2020)
Where a name gives a salt, the structure may show the parent alone. Marks after values point to notes of the source that are not given here.

Each molecule was assayed on Antibody B (assay: Viscosity of Antibody B test formulations (mVROC viscometer)). Settings: 10 mM histidine buffer, 177 mg/mL Antibody B, 0.2 M excipient, pH 6.0.
Type: physicochemical
Description: Antibody B formulations comprised the following: 10 mM histidine buffer, Antibody B at a concentration of 177 mg/mL and the test excipient (pegylated excipient of the invention, as described herein) at a concentration of 200 mM, pH adjusted to pH 6.0. The Antibody B formulation without excipients consisted of 177 mg/mL Antibody B in 10 mM histidine buffer at pH 6.0. The 10 mM histidine buffer used with Antibody B consisted of 10 mM L-histidine in sterile water, pH adjusted to 6.0.
(§1) All viscosity measurements were conducted using the mVROC (Viscometer/Rheometer-On-A-Chip, RheoSense, Inc., San Ramon, Calif.). The test formulations were placed into a 250 μl Hamilton air-tight syringe, which was then placed inside the syringe jacket of the mVROC. The instrument injected formulation into the chip for viscosity measurement at an appropriate flow rate. Most measurements were done in duplicates.

Structure (SMILES)	Viscosity 1 [mPa-s]	Viscosity 2 [mPa-s]	Viscosity Average [mPa-s]
COCCOCCN(CCOCCOC)[C@@H](CCCNC(=N)N)C(=O)O [Example 8, (S)-2-(bis(2-(2-methoxyethoxy)ethyl)amino)-5-guanidinopentanoic acid dihydrochloride]	22.25	22.19	22.22
COCCOCCN(CCOCCOC)[C@@H](Cc1c[nH]cn1)C(=O)O [Example 9, (S)-2-(bis(2-(2-methoxyethoxy)ethyl)amino)-3-(1H-imidazol-4-yl)propanoic acid dihydrochloride]	26.55	26.67	26.61

What follows are molecules tested on pembrolizumab (assay: Viscosity of pembrolizumab test formulations (mVROC viscometer)). Settings: 10 mM histidine buffer, 200 mg/mL pembrolizumab, 0.2 M excipient, pH 5.5.
Type: physicochemical
Description: Pembrolizumab formulations comprised the following: 10 mM histidine buffer, pembrolizumab at a concentration of 200 mg/mL, and the test excipient (pegylated excipient of the invention, as described herein) at a concentration of 200 mM, pH adjusted to pH 5.5. Pembrolizumab formulations without excipients consisted of 200 mg/mL pembrolizumab in 10 mM histidine buffer at pH 5.5. The 10 mM histidine buffer used with pembrolizumab formulations consisted of consists of 10 mM L-histidine in sterile water, pH adjusted to 5.5.
as §1

Structure (SMILES)	Viscosity 1	Viscosity 2	Viscosity Average
N[C@@H](Cc1c[nH]cn1)C(=O)O [Histidine, reference compound]	35.79 mPa-s	35.32 mPa-s	35.56 mPa-s
COCCOCCOCCOCC(=O)N[C@@H](CCCNC(=N)N)C(=O)O [Example 17, (2,5,8,11-tetraoxatridecan-13-oyl)-L-arginine]	23.09 mPa-s	22.82 mPa-s	22.96 mPa-s
COCCOCC(=O)N[C@@H](Cc1ccccc1)C(=O)O [Example 22]	17.77 mPa-s	17.63 mPa-s	17.70 mPa-s
COCCOCCN(C(=O)COCCOC)[C@@H](Cc1c[nH]cn1)C(=O)O [Example 4, (S)-3-(1H-imidazol-4-yl)-2-(2-(2-methoxyethoxy)-N-(2-(2-methoxyethoxy)ethyl)acetamido)propanoic acid]	19.64 mPa-s	19.28 mPa-s	19.46 mPa-s
COCCOCCOCCN[C@@H](Cc1c[nH]cn1)C(=O)O [Example 19, (2-(2-(2-methoxyethoxy)ethoxy)ethyl)-L-histidine]	26.58 mPa-s	26.83 mPa-s	26.71 mPa-s
COCCOCC(=O)N[C@@H](CCCCN)C(=O)O [Example 10, (S)-6-amino-2-(2-(2-methoxyethoxy)acetamido)hexanoic acid]	26.39 mPa-s	26.35 mPa-s	26.37 mPa-s
COCCOCCOCCOCCN[C@@H](Cc1c[nH]cn1)C(=O)O [Example 18, (2,5,8,11-tetraoxatridecan-13-yl)-L-histidine]	22.82 mPa-s	22.47 mPa-s	22.65 mPa-s
COCCOCCN(CCOCCOC)[C@@H](CCCNC(=N)N)C(=O)O [Example 5, (S)-2-(bis(2-(2-methoxyethoxy)ethyl)amino)-5-guanidinopentanoic acid]	18.02* *Ave- rage of 4 values mPa-s	18.37* *Ave- rage of 4 values mPa-s	18.19** **Ave- rage of 8 values mPa-s
O=C(O)[C@H](Cc1c[nH]cn1)N(CCOCCO)CCOCCO [Example 21, (S)-2-(bis(2-(2-hydroxyethoxy)ethyl)amino)-3-(1H-imidazol-4-yl)propanoic acid]	23.19 mPa-s	23.16 mPa-s	23.18 mPa-s
COCCOCCOCCOCC(=O)N[C@@H](Cc1c[nH]cn1)C(=O)O [Example 16]	23.33 mPa-s	23.54 mPa-s	23.44 mPa-s
COCCOCCN(CCOCCOC)[C@@H](Cc1c[nH]cn1)C(=O)O [Example 6, (S)-2-(bis(2-(2-methoxyethoxy)ethyl)amino)-3-(1H-imidazol-4-yl)propanoic acid]	17.57* *Ave- rage of 3 values mPa-s	18.10* *Ave- rage of 3 values mPa-s	17.83** **Ave- rage of 6 values mPa-s
COCCOCCN(CCOCCOC)[C@@H](CCCCN)C(=O)O [Example 11, (S)-6-amino-2-(bis(2-(2-methoxyethoxy)ethyl)amino)hexanoic acid]	21.36 mPa-s	21.50 mPa-s	21.43 mPa-s
N=C(N)NCCC[C@H](N)C(=O)O [Arginine, reference compound]	30.25 mPa-s	30.55 mPa-s	30.40 mPa-s
COCCOCCN(C(=O)COCCOC)[C@@H](CCCNC(=N)N)C(=O)O [Example 3, (S)-5-guanidino-2-(2-(2-methoxyethoxy)-N-(2-(2-methoxyethoxy)ethyl)acetamido)pentanoic acid]	21.12 mPa-s	21.18 mPa-s	21.15 mPa-s
COCCOCCOCC(=O)N[C@@H](CCCNC(=N)N)C(=O)O [Example 2, (S)-12-(3-guanidinopropyl)-10-oxo-2,5,8-trioxa-11-azatridecan-13-oic acid]	22.05 mPa-s	22.24 mPa-s	22.15 mPa-s
COCCOCC(=O)N[C@@H](CCCNC(=N)N)C(=O)O [Example 15, (2-(2-methoxyethoxy)acetyl)-L-arginine dihydrochloride]	18.67 mPa-s		18.67 mPa-s
COCCOCC(=O)N[C@@H](Cc1c[nH]cn1)C(=O)O [Example 13, (2-(2-methoxyethoxy)acetyl)-L-histidine]	20.05 mPa-s	20.09 mPa-s	20.07 mPa-s
COCCOCCOCC(=O)N[C@@H](Cc1c[nH]cn1)C(=O)O [Example 1, (S)-12-((1H-imidazol-4-yl)methyl)-10-oxo-2,5,8-trioxa-11-azatridecan-13-oic acid]	23.12 mPa-s	23.27 mPa-s	23.20 mPa-s
COCCOCCN[C@@H](CCCNC(=N)N)C(=O)O [Example 14, (S)-5-guanidino-2-((2-(2-methoxyethoxy)ethyl)amino)pentanoic acid]	24.59 mPa-s	24.76 mPa-s	24.68 mPa-s
N=C(N)NCCC[C@@H](C(=O)O)N(CCOCCO)CCOCCO [Example 20, (S)-2-(bis(2-(2-hydroxyethoxy)ethyl)amino)-5-guanidinopentanoic acid]	25.28 mPa-s	25.42 mPa-s	25.35 mPa-s
COCCOCC(=O)N[C@@H](Cc1ccc(O)cc1)C(=O)O [Example 23, (2-(2-methoxyethoxy)acetyl)-L-tyrosine]	20.15 mPa-s	20.09 mPa-s	20.12 mPa-s
COCCOCCN[C@@H](Cc1c[nH]cn1)C(=O)O [Example 12, (S)-3-(1H-imidazol-4-yl)-2-((2-(2-methoxyethoxy)ethyl)amino)propanoic acid]	22.19 mPa-s	22.33 mPa-s	22.26 mPa-s
